Reference: patent publication US10654853B2, “Spiro-condensed pyrrolidine derivatives as deubiquitylating enzymes (DUB) inhibitors” (MISSION THERAPEUTICS LIMITED, priority 2016, dated 2020)

What follows are compounds tested against Cezanne 1 (Homo sapiens (Human), UniProt Q6GQQ9) (assay: Cezanne 1 biochemical IC50 assay (fluorescence polarisation, TAMRA labelled peptide linked to ubiquitin)). Details: not given.
How it was run: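 FLAG-tagged Cezanne 1, expressed in HEK293T and FLAG-purified, was preincubated with compound for 30 min at room temperature in Tris pH 7.5 buffer with Tween 20, BSA and β-mercaptoethanol. Reactions were started with 50 nM TAMRA-peptide isopeptide-linked to ubiquitin. Fluorescence polarisation (ex 540/em 590 nm) was read immediately and after 2 h.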

Chain of Cezanne 1 (Q6GQQ9 whole entry): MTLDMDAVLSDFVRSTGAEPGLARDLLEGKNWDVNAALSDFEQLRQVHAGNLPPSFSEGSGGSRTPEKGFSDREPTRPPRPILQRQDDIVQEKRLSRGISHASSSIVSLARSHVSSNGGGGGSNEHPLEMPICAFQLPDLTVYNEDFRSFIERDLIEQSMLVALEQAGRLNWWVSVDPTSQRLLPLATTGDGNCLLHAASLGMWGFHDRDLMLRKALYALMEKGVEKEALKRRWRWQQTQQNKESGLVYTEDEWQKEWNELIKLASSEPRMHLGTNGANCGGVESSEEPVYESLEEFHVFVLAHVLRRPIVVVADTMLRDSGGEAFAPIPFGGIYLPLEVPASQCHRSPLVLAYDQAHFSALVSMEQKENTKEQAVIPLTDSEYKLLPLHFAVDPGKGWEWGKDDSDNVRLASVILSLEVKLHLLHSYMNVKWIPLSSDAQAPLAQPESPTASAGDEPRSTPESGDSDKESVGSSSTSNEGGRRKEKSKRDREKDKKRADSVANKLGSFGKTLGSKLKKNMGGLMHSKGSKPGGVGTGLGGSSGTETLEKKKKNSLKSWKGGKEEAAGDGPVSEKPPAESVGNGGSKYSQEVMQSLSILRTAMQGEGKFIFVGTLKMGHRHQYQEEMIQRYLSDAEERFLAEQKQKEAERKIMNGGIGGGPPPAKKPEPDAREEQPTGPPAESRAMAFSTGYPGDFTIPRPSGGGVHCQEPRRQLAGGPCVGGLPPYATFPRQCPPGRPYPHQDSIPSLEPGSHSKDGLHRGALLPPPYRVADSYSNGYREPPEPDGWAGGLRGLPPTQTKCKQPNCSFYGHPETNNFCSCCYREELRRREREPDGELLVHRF

Row | SMILES | IC50
1 | N#CN1CCC2(Cc3ccc(-c4ccc(-c5ccccc5)cc4)cc3NC2=O)C1 (stereo not shown) [Example 6, 7′-([1,1′-Biphenyl]-4-yl)-2′-oxo-1′,4′-dihydro-2′H-spiro[pyrrolidine-3,3′-quinoline]-1-carbonitrile] | 1000 to 10000 nM

Same assay, conditions: Cezanne 1 biochemical IC50 assay; 30 min pre-incubation, read after 2 hr at room temperature; read-out: IC50 range

Row | SMILES | IC50
2 | N#CN1CCC2(Cc3ccccc3NC2=O)C1 (stereo not shown) [Example 1, 2′-Oxo-1′,4′-dihydro-2′H-spiro[pyrrolidine-3,3′-quinoline]-1-carbonitrile] | 1000 to 10000 nM
3 | N#CN1CC[C@]2(Cc3cc(-c4ccccc4)ccc3NC2=O)C1 [Example 67, (R)-2′-Oxo-6′-phenyl-1′,4′-dihydro-2′H-spiro[pyrrolidine-3,3′-quinoline]-1-carbonitrile] | 100 to 1000 nM
4 | N#CN1CCC2(Cc3ccc(-c4ccc(S(=O)(=O)N5CCOCC5)cc4)cc3NC2=O)C1 (stereo not shown) [Example 32, 7′-(4-(Morpholinosulfonyl)phenyl)-2′-oxo-1′,4′-dihydro-2′H-spiro[pyrrolidine-3,3′-quinoline]-1-carbonitrile] | 1000 to 10000 nM
5 | Cn1ncc2cc(-c3ccc4c(c3)CC3(CCN(C#N)C3)C(=O)N4)ccc21 (stereo not shown) [Example 107, 6′-(1-Methyl-1H-indazol-5-yl)-2′-oxo-1′,4′-dihydro-2′H-spiro[pyrrolidine-3,3′-quinoline]-1-carbonitrile] | 100 to 1000 nM
6 | N#CN1CCC2(Cc3cc(-c4ccc(Oc5ccccc5)cc4)ccc3NC2=O)C1 (stereo not shown) [Example 96, 2′-Oxo-6′-(4-phenoxyphenyl)-1′,4′-dihydro-2′H-spiro[pyrrolidine-3,3′-quinoline]-1-carbonitrile] | 1000 to 10000 nM
7 | Cc1ccc2[nH]ncc2c1-c1ccc2c(c1)CC1(CCN(C#N)C1)C(=O)N2 (stereo not shown) [Example 108, 6′-(5-Methyl-1H-indazol-4-yl)-2′-oxo-1′,4′-dihydro-2′H-spiro[pyrrolidine-3,3′-quinoline]-1-carbonitrile] | 100 to 1000 nM
8 | COc1ccc(C(C)C)cc1-c1ccc2c(c1)CC1(CCN(C#N)C1)C(=O)N2 (stereo not shown) [Example 101, 6′-(5-Isopropyl-2-methoxyphenyl)-2′-oxo-1′,4′-dihydro-2′H-spiro[pyrrolidine-3,3′-quinoline]-1-carbonitrile] | 100 to 1000 nM
9 | N#CN1CCC2(Cc3cc(-c4ccc(C(=O)N5CCOCC5)cc4)ccc3NC2=O)C1 (stereo not shown) [Example 120, 6′-(4-(Morpholine-4-carbonyl)phenyl)-2′-oxo-1′,4′-dihydro-2′H-spiro[pyrrolidine-3,3′-quinoline]-1-carbonitrile] | 100 to 1000 nM
10 | Cc1n[nH]cc1-c1ccc2c(c1)CC1(CCN(C#N)C1)C(=O)N2 (stereo not shown) [Example 128, 6′-(3-Methyl-1H-pyrazol-4-yl)-2′-oxo-1′,4′-dihydro-2′H-spiro[pyrrolidine-3,3′-quinoline]-1-carbonitrile] | 100 to 1000 nM
11 | N#CN1CCC2(Cc3cc(-c4cccc5[nH]ncc45)ccc3NC2=O)C1 (stereo not shown) [Example 134, 6′-(1H-Indazol-4-yl)-2′-oxo-1′,4′-dihydro-2′H-spiro[pyrrolidine-3,3′-quinoline]-1-carbonitrile] | 100 to 1000 nM
12 | N#CN1CCC2(Cc3cc(-c4ccccc4)ccc3NC2=O)C1 (stereo not shown) [Example 41, 2′-Oxo-6′-phenyl-1′,4′-dehydro-2′H-spiro[pyrrolidine-3,3′-quinoline]-1-carbonitrile] | 100 to 1000 nM
13 | CC(=O)Nc1ccccc1-c1ccc2c(c1)CC1(CCN(C#N)C1)C(=O)N2 (stereo not shown) [Example 119, N-(2-(1-Cyano-2′-oxo-1′,4′-dihydro-2′H-spiro[pyrrolidine-3,3′-quinolin]-6′-yl)phenyl)acetamide] | 100 to 1000 nM
14 | N#CN1CCC2(Cc3cc(-c4ccc(F)cc4)ccc3NC2=O)C1 (stereo not shown) [Example 44, 6′-(4-Fluorophenyl)-2′-oxo-1′,4′-dihydro-2′H-spiro[pyrrolidine-3,3′-quinoline]-1-carbonitrile] | 100 to 1000 nM
15 | N#CN1CC[C@@]2(C1)Oc1ncccc1NC2=O [Example 65, (S)-2-Oxo-1,2-dihydrospiro[pyrido[2,3-b][1,4]oxazine-3,3′-pyrrolidine]-1′-carbonitrile] | 1000 to 10000 nM
16 | N#CN1CCC2(C1)Nc1nc(-c3ccccc3)ccc1NC2=O (stereo not shown) [Example 147, 2-Oxo-6-phenyl-1,4-dihydro-2H-spiro[pyrido[2,3-b]pyrazine-3,3′-pyrrolidine]-1′-carbonitrile] | 1000 to 10000 nM
17 | N#CN1CCC2(Cc3cc(-c4cc(OC(F)(F)F)ccc4Cl)ccc3NC2=O)C1 (stereo not shown) [Example 125, 6′-(2-Chloro-5-(trifluoromethoxy)phenyl)-2′-oxo-1′,4′-dihydro-2′H-spiro[pyrrolidine-3,3′-quinoline]-1-carbonitrile] | 100 to 1000 nM
18 | CC(=O)Nc1cccc(-c2ccc3c(c2)NC(=O)C2(CCN(C#N)C2)C3)c1 (stereo not shown) [Example 29, N-(3-(1-Cyano-2′-oxo-1′,4′-dihydro-2′H-spiro[pyrrolidine-3,3′-quinolin]-7′-yl)phenyl)acetamide] | 1000 to 10000 nM

Second part, the compound after the results:

Row | IC50 | SMILES
19 | 100 to 1000 nM | COc1ccc(-c2cnc3c(c2)NC(=O)C2(CCN(C#N)C2)O3)c(C)n1 (stereo not shown) [Example 138, 7-(6-Methoxy-2-methylpyridin-3-yl)-2-oxo-1,2-dihydrospiro[pyrido[2,3-b][1,4]oxazine-3,3′-pyrrolidine]-1′-carbonitrile]
20 | 100 to 1000 nM | N#CN1CC[C@@]2(C1)Oc1ncc(-c3cccc(F)c3)cc1NC2=O [Example 69, (S)-7-(3-Fluorophenyl)-2-oxo-1,2-dihydrospiro[pyrido[2,3-b][1,4]oxazine-3,3′-pyrrolidine]-1′-carbonitrile]
21 | 100 to 1000 nM | N#Cc1ccc(-c2ccc3c(c2)CC2(CCN(C#N)C2)C(=O)N3)cc1 (stereo not shown) [Example 42, 6′-(4-Cyanophenyl)-2′-oxo-1′,4′-dihydro-2′H-spiro[pyrrolidine-3,3′-quinoline]-1-carbonitrile]
22 | > 10000 nM | N#CN1CCC2(CC(c3ccccc3)NC2=O)C1 (single isomer, unassigned) [Example 84, 6-Oxo-8-phenyl-2,7-diazaspiro[4.4]nonane-2-carbonitrile]
23 | 1000 to 10000 nM | N#CN1CCC2(Cc3cc(-c4cccc(OCc5ccccc5Cl)c4)ccc3NC2=O)C1 (stereo not shown) [Example 102, 6′-(3-((2-Chlorobenzyl)oxy)phenyl)-2′-oxo-1′,4′-dihydro-2′H-spiro[pyrrolidine-3,3′-quinoline]-1-carbonitrile]
24 | > 10000 nM | CC1CC2(CCN(C#N)C2)C(=O)N1 (single isomer, unassigned) [Example 82, 8-Methyl-6-oxo-2,7-diazaspiro[4.4]nonane-2-carbonitrile]
25 | < 100 nM | Cn1ncc2cc(-c3ccc4c(c3)NC(=O)C3(CCN(C#N)C3)C4)ccc21 (stereo not shown) [Example 24, 7′-(1-Methyl-1H-indazol-5-yl)-2′-oxo-1′,4′-dihydro-2′H-spiro[pyrrolidine-3,3′-quinoline]-1-carbonitrile]
26 | 100 to 1000 nM | N#CN1CCC2(Cc3cc(-c4cccc(NS(=O)(=O)C5CC5)c4)ccc3NC2=O)C1 (stereo not shown) [Example 109, N-(3-(1-Cyano-2′-oxo-1′,4′-dihydro-2′H-spiro[pyrrolidine-3,3′-quinolin]-6′-yl)phenyl)cyclopropanesulfonamide]
27 | 100 to 1000 nM | N#CN1CCC2(Cc3cc(-c4ccc(C(=O)NCc5ccccc5)cc4)ccc3NC2=O)C1 (stereo not shown) [Example 127, N-Benzyl-4-(1-cyano-2′-oxo-1′,4′-dihydro-2′H-spiro[pyrrolidine-3,3′-quinolin]-6′-yl)benzamide]
28 | 100 to 1000 nM | N#CN1CCC2(C1)Oc1ncccc1NC2=O (stereo not shown) [Example 48, 2-Oxo-1,2-dihydrospiro[pyrido[2,3-b][1,4]oxazine-3,3′-pyrrolidine]-1′-carbonitrile]
29 | 1000 to 10000 nM | CN(C)C(=O)c1ccc2c(c1)NC(=O)C1(CCN(C#N)C1)C2 (stereo not shown) [Example 46, 1-Cyano-N,N-dimethyl-2′-oxo-1′,4′-dihydro-2′H-spiro[pyrrolidine-3,3′-quinoline]-7′-carboxamide]
30 | 1000 to 10000 nM | Cc1cc(-c2ccc3c(c2)NC(=O)C2(CCN(C#N)C2)C3)ccn1 (stereo not shown) [Example 34, 7′-(2-Methylpyridin-4-yl)-2′-oxo-1′,4′-dihydro-2′H-spiro[pyrrolidine-3,3′-quinoline]-1-carbonitrile]
31 | 100 to 1000 nM | N#CN1CCC2(C1)Oc1nc(-c3ccccc3)ccc1NC2=O (stereo not shown) [Example 54, 2-Oxo-6-phenyl-1,2-dihydrospiro[pyrido[2,3-b][1,4]oxazine-3,3′-pyrrolidine]-1′-carbonitrile]
32 | 100 to 1000 nM | N#Cc1ccc(-c2cnc3c(c2)NC(=O)C2(CCN(C#N)C2)N3)cc1 (stereo not shown) [Example 58, 7-(4-Cyanophenyl)-2-oxo-1,4-dihydro-2H-spiro[pyrido[2,3-b]pyrazine-3,3′-pyrrolidine]-1′-carbonitrile]
33 | 1000 to 10000 nM | Cn1cc(-c2ccc3c(c2)CC2(CCN(C#N)C2)C(=O)N3)ccc1=O (stereo not shown) [Example 122, 6′-(1-Methyl-6-oxo-1,6-dihydropyridin-3-yl)-2′-oxo-1′,4′-dihydro-2′H-spiro[pyrrolidine-3,3′-quinoline]-1-carbonitrile]
34 | 100 to 1000 nM | N#CN1CCC2(C1)Nc1ncc(-c3ccc(F)cc3)cc1NC2=O (stereo not shown) [Example 59, 7-(4-Fluorophenyl)-2-oxo-1,4-dihydro-2H-spiro[pyrido[2,3-b]pyrazine-3,3′-pyrrolidine]-1′-carbonitrile]
